Measurements reported in patent publication EP3442594B1, “BLOCK COPOLYMER FOR […] RESISTANCE OF TUMOURS TO CHEMOTHERAPY, ITS POLYMER-DRUG CONJUGATE, PHARMACEUTICAL COMPOSITION CONTAINING THEM, METHOD OF PREPARATION AND USE THEREOF” (Ustav makromolekularni chemie AV CR, v.v.i., priority 2016, dated 2017).
≈ marks a conversion by molar mass, not a printed value. Where “and” joins values, the source holds several entries; their conditions need not be identical. Identical values can stand only once. Like-named read-outs stand apart in the source and are kept apart here.

Experiments:
[1] = test system: 4T1 - mammary carcinoma cell line; test: Cytostatic activity, 3H-thymidine incorporation; format: cell-based, murine; details: Mus musculus; 4T1, 72 hours
Procedure: (§1) These were murine tumour cell lines (CT26 - colon carcinoma cell line, 4T1 - mammary carcinoma cell line, both originating from the BALB/c inbred strain of mice, followed by EL4.IL-2-line of T-cell lymphoma originating from the C57BL/6 inbred strain of mice) and FaDu - a human line of squamous cell carcinoma of the head and neck. […] The cell proliferation was then determined using the standard method of incorporating ^3H-thymidine which was added for the last 6 hours of culture. Subsequently, the cultures were processed using the Tomtec Mach III harvester and, after drying, the radioactivity of samples obtained was measured by the beta-scintillation counter Microbeta Trilux (Wallac) using a solid scintillant (MeltiLex; Perkin Elmer). […] The activity of conjugates was determined by 3H-thymidine incorporation after 72 hours of incubation of cells with various concentrations of drugs. The IC50 values are given in ng of doxorubicin/mL and were calculated as a mean of several independent determinations.

[2] = test system: EL4.IL-2-line of T-cell lymphoma; test: Cytostatic activity, 3H-thymidine incorporation; format: cell-based, murine; details: Mus musculus, EL4.IL-2, 72 hours
Procedure: as §1

[3] = test system: CT26 - colon carcinoma cell line; test: Cytostatic activity, 3H-thymidine incorporation; format: cell-based, murine
Procedure: as §1

[4] = test system: murine T-cell lymphoma EL4; test: In vivo antitumour effect in the treatment of EL4 lymphoma; design: species or system C57BL/6 mice
Procedure: (§2) The in vivo antitumour effect of micellar diblock polymer conjugate of Example 28 carrying doxorubicin (DOX-DB) was studied on a model of murine T-cell lymphoma EL4 in the C57BL/6 inbred strains of mice. The conjugate was administered to mice intravenously (i.v.) in a single dose equivalent to 7.5 mg of doxorubicin/kg. The drug was injected 8 days after subcutaneous administration of 1 x 10^5 EL4 tumour cells, at a time when tumours are developed and the tumour bed size is about 6-8 mm in diameter. […] Further, the free doxorubicin (DOX) was used for treatment, injected at a total dose of 10 mg/kg, which, due to the different pharmacokinetics of a low molecular weight drug and the associated danger of high systemic toxicity, was injected in two partial intravenous doses on the 8th and 12th day after transplantation of tumour cells (each dose of 5 mg of doxorubicin).
(§3) Days mean the death of animals after administration of tumour cells (1 x 10^5 cells EL4 s.c. on day 0), LTS ("long term survivor") means long-term surviving mice without evidence of tumour (at least until day 70 after administration of tumour cells). The last line contains information about the median survival in groups.

NB4/DOX = test: IC50 of drugs with/without block copolymer, AlamarBlue method; format: cell-based; details: cells pre-incubated 1 hour with/without block copolymer at 250 µg/mL
Procedure: (§4) In in vitro experiments the cells were first incubated for 1 hour with/without a diblock or triblock copolymer at a concentration 250 µg/mL and thereto were added the above mentioned drugs in a concentration series. After 72 hours of incubation the metabolic activity of cells was determined using the AlamarBlue method and from it the IC50 of individual drugs. An experiment was performed with non-degradable diblock polymers PHPMA-PPO (Example 20) and triblock polymers (PHPMA)2-PPO (Example 21) as a control.

NB3/DOX = test: as above; format: cell-based; details: cells pre-incubated 1 hour with/without block copolymer at 250 µg/mL
Procedure: as §4

[5] = test system: FaDu - a human line of squamous cell carcinoma of the head and neck; test: Cytostatic activity, 3H-thymidine incorporation; format: cell-based; details: 72 hours
Procedure: as §1

[6] = test system: murine T-cell lymphoma EL4; format: in vivo
Procedure: as §2, §3

[7] = Release of docetaxel or its derivative from polymer conjugates in phosphate buffers (HPLC); format: physicochemical; details: pH 7.4 compared with pH 5.0, 37°C, conjugate 5 mg/mL
Procedure: At predetermined time intervals 200 µL of incubation solution was collected and after the extraction of released drugs and derivatives thereof into chloroform their amounts were determined using an HPLC system (Shimadzu HPLC system equipped with a column with a reverse phase Chromolith Performance RP-18e (100 x 4.6 mm) and UV-VIS detector Shimadzu SPD-10AVvp (230 nm), eluent water-acetonitrile with gradient from 50 to 100 vol% of acetonitrile, flow rate of 0.5 mL x min^-1).

[8] = read-out: IC50 after 72 hours of incubation

In the case of `COc1cccc2c1C(=O)c1c(O)c3c(c(O)c1C2=O)C[C@@](O)(C(=O)CO)C[C@@H]3O[C@H]1C[C@H](N)[C@H](O)[C@H](C)O1` [DOX, doxorubicin], the IC50 [1] is reported as 0.0143 µg/mL (≈ 0.0263 µM), the IC50 [2] is reported as 0.0122 µg/mL (≈ 0.0224 µM) and the IC50 ([3]; Mus musculus, CT26, 72 hours) is reported as 0.0425 µg/mL (≈ 0.0782 µM). For the same compound, the complete cure ([4]; 2 x 5 mg DOX/kg i.v.) was “none”, the median survival ([4]; 2 x 5 mg DOX/kg i.v.) was 40.5 days and the “tumour growth in comparison to untreated controls” value ([4]; 2 x 5 mg DOX/kg i.v.) was “the average tumour growth was slower than in the group of untreated mice, but showed a steady progression”. The “Survival: day of death of individual animals after administration of tumour cells” value ([4]; 2 x 5 mg DOX/kg i.v. on days 8 and 12) was 35 Days and 38 Days and 39 Days and 42 Days and 53 Days (2×), the IC50 (NB4/DOX; [8]) was 2.61 ± 0.17 µg/mL (≈ 4.8 µM) and the “IC50 after 72 hours of incubation” value (NB3/DOX) was 0.168 ± 0.005 µg/mL. It also gave an IC50 (NB3/DOX; [8]) of 0.215 ± 0.004 µg/mL (≈ 0.396 µM) and an IC50 [5] of 0.0048 µg/mL (≈ 0.00883 µM).

In the case of “[raft-poly(HPMA-co-MA-AH-NHN=DOX)]-GFLG-PPO-NH2 [DB-DOX]”, the “decrease of the cytostatic effect of doxorubicin by binding the drug to a diblock carrier” value [3] is reported as 2.6 times, the “first mouse with complete tumour regression, time after drug administration” value ([6]; 1 x 7.5 mg DOX eq./kg) is reported as “eighth day” and the median survival ([6]; 1 x 7.5 mg DOX eq./kg i.v.) is reported as 47.5 days. For the same compound, the “tumour growth in comparison to untreated controls” value ([6]; 1 x 7.5 mg DOX eq./kg i.v.) was “tumour growth stagnation within three days and a significant reduction in growth between the third and sixth day after administration of the drug”, the “Survival: day of death of individual animals after administration of tumour cells” value ([6]; 1 x 7.5 mg DOX eq./kg i.v. on day 8) was 37 Days and 39 Days and 42 Days (2×) and 60 Days and LTS (LTS ("long term survivor") means long-term surviving mice without evidence of tumour (at least until day 70 after administration of tumour cells)) (3×) and the “complete cure (share of subjects)” value ([6]; 1 x 7.5 mg DOX eq./kg i.v., 8 mice) was 37.5%. For the same compound, the “mice without apparent tumour at the place of administration” value ([6]; 13 days after drug administration, 1 x 7.5 mg DOX eq./kg) was 4 mice (out of 8), the “resistance against tumour after retransplantation of cured mice (LTS)” value ([6]; retransplanted 119 days after the first tumour, no treatment) was “of these three mice two were resistant” and the “IC50 after 72 hours of incubation” value (NB4/DOX) was 7.07 ± 0.11 µg/mL. For the same compound, the “IC50 after 72 hours of incubation” value (NB3/DOX) was 0.919 ± 0.020 µg/mL.

With “[raft-poly(HPMA-co-MA-AH-NHN=DTX-LEV)]-GFLG-PPO-NH2 [Example 28B]” the “release of drug DTX (or its derivative)” value [7] was “released significantly slower”.
